From US5958886A, “Carnitine-containing peptides and a method for using the same” (Sigma-Tau Pharmaceuticals, Inc., priority 1998, dated 1999)
Non-standard residues stand in square brackets, D forms with d. Residues, ends and D or L forms follow the SMILES beside them. Sar = CNCC(=O)O

Tests used:
peptide carrier = target: T1, peptide carrier (Homo sapiens, UniProt P46059); assay: Inhibition of glycyl-sarcosine transport via the peptide carrier in Caco-2 cells; type: cell-based
T1 construct: endogenous in cells; host or cells: Caco-2 cells
T1 sequence (P46059 1-708): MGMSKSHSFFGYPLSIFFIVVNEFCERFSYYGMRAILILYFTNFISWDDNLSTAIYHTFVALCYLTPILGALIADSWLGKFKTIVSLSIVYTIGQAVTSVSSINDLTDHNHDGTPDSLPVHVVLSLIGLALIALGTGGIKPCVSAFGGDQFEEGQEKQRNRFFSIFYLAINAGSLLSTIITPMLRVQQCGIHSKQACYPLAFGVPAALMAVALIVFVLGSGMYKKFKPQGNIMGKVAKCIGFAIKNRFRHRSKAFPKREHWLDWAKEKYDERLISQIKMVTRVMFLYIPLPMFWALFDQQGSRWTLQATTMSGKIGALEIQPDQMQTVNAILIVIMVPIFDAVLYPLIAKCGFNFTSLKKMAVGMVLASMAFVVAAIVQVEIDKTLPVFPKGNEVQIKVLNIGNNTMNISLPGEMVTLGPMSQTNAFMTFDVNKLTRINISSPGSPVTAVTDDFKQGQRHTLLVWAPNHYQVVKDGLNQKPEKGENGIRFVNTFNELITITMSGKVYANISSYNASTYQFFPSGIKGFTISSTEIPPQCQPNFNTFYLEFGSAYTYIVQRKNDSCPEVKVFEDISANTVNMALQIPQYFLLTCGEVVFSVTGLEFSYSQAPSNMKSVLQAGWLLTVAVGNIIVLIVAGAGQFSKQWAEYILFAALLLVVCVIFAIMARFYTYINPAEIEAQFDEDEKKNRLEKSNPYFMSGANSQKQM
Source text: Carnityl-alanyl-alanine (CAA) is a peptide derivative of carnitine. In this experiment, the ability of CAA to compete with glycyl-sarcosine for transport via the peptide carrier was studied in Caco-2 cells. These cells are a good model system for the human intestine and they express the peptide carrier as does the human intestine. Glycyl-sarcosine is a standard substrate for the peptide carrier. If CAA is taken up by the peptide carrier it is expected to compete with glycyl-sarcosine for transport via the carrier and thus inhibit the transport.

[1] = target: T2, peptide carrier from human intestine (Homo sapiens, UniProt P46059); assay: Charge transfer in Xenopus oocytes expressing the peptide carrier from human intestine (electrophysiological approach); type: cell-based; conditions: Xenopus oocytes expressing human intestinal peptide carrier; exposure to 10 mM
T2 construct: expressed in transfected cells; host or cells: Xenopus oocytes injected with peptide transporter mRNA
T2 sequence (P46059 1-708): T1 sequence (P46059 1-708)
Source text: In this experiment, Xenopus (frog) oocytes which were made to express the peptide carrier from human intestine by injection of its peptide transporter mRNA were used to study the transport of CAA via the carrier. The peptide carrier uses the energy from a proton gradient and peptide transport via the carrier leads to a transfer of positive charge into the oocytes. This charge transfer can be monitored using the electrophysiological approach. If CAA is transported via the peptide carrier, exposure of the oocytes to CAA is expected to result in the transfer of positive charge.

Row | inhibition of glycyl-sarcosine transport (in words) (peptide carrier; Caco-2 cells, under similar conditions) | Molecule | charge transfer into oocytes (in words) [1] | inhibition of the transport of glycylsarcosine (peptide carrier; Caco-2 cells, at 10 mM) [%] | inhibition of the transport of glycylsarcosine (peptide carrier; Caco-2 cells, at 20 mM) [%] | affinity for the intestinal peptide carrier (peptide carrier; concluded from the Caco-2 and oocyte experiments)
1 | does not inhibit | C[N+](C)(C)CC(O)CC(=O)[O-] (stereo not drawn) [Free carnitine, Carnitine] | – | – | – | –
2 | – | CN(CC(=O)O)C(=O)CN [glycyl-sarcosine, Glycyl-sarcosine, reference compound] (H-Gly-[Sar]-OH) | charge transfer found | – | – | –
3 | – | Carnityl-alanyl-alanine [CAA] | induced charge transfer | 35 | 80 | millimolar range
